Results on one molecule are retold here after patent US8324282B2, “Alkylating agent combinations in the treatment of cancer” (Case Western Reserve University, priority 1999, dated 2012).

The test system of data set [1] is AP sites in calf thymus DNA. The experiment in a line: Competitive AP site binding assayed by Aldehyde Reactive Probe (ARP). From the text:
1. Analysis of chemical—modified AP Sites assayed by Aldehyde Reactive Probe (ARP). This is a competitive assay to measure the reactivity with AP site between ARP reagent (Dojindo Molecular Technologies Inc., Gaithersburg, Md.) and the screening compounds. ARP and MX have a similar reactivity with AP sites. They react specifically with an aldehyde group that is open ring form of the AP sites. Thus this assay will allow identification of compounds with potential to block AP site repair based on the binding affinity and efficiency to AP sites of screening compounds compared to ARP and MX.
a. AP site standard preparation: AP sites were produced in a calf thymus DNA by heat/acid-buffer solution. Intact calf thymus DNA was added to sodium citrate buffer (10 mM sodium citrate containing 10 mM NaH2PO4 and 10 mM NaCl, pH 5.0) and held at 70° C. for 30 min. The reaction was stopped by chilling rapidly on ice, and the DNA was then precipitated with cold ethanol, washed with 70% ethanol, dried, and resuspended in sterilized distilled water.
b. […] After NC membrane was rinsed with washing buffer containing NaCl (0.26 M), EDTA (1 mM), Tris-HCI (20 mM), and Tween 20 (1%), ARP-AP sites are visualized with ECL reagents (Amersham Corp.) (FIG. 22A) and quantitated by scanning densitometer (FIG. 22B).

For data set [2], the system named is AP sites in DNA. The experiment in a line: Cellular image of fluorescent A-modified AP sites. In kind it is cell-based. The settings on record: A alone. The protocol:
(§1) On the basis of a similar molecular reaction to MX, (e.g., a primary amine with the carbonyl group of the abasic site), we tested whether a compound (Compound A) would have the ability to bind to AP site generated by TMZ and enhance the killing effect of TMZ. A has a MX-like structure to bind to AP site and also has fluorescence molecules to provide a signal for direct detection of modified AP sites using cellular image. […] In in vitro study, we observed A at non-toxic concentrations (1 mM) sensitized cells to TMZ-cytotoxicity 2-3-fold. In a xenograft model, A (2 mg/kg) combined with TMZ (80 mg/kg) enhanced anti-tumor effect in HCT116 and DLD1, two xenograft tumors with very high resistance to TMZ. Tumor growth delays were 13 days in HCT116 and 12 days in DLD1 treated with the combination of A and TMZ over TMZ alone. Thus, A has a similar effect to MX on interruption of BER and can potentiate chemotherapeutic agents such as alkylating agents. Results are depicted in FIGS. 14-16.

Data set [3] deals with DLD1 cells and HCT116 cells. The experiment in a line: Potentiation of TMZ cytotoxicity by compound A in tumor cells. The format is cell-based. As to the method: as §1
For data set [4], the system named is AP-endonuclease (APE). The experiment in a line: AP site cleavage by AP-endonuclease (APE). In kind it is biochemical. The protocol:
2. AP sites cleavaged by AP-endonuclease (APE). […] The assay may be performed as follows (see also FIGS. 23A and B):
a. AP site is prepared by replacing single nucleoside with deoxyuridine in duplex oligonucleotides (40 mer).
b. Regular AP site is produced in the duplex oligonucleotides by human uracil DNA glycosylase (LIDGase, Trevigen, Gaithersburg, Md.) to remove the uracil residue.
c. To generate MX-adducted AP site substrates: the UDG-treated duplex oligonucleotides are mixed with 10 mM MX in buffer containing 10 mM KPO4, pH 7.1 and incubated at 37° C. After 30 min, the substrates are recovered by ethanol precipitation, lyophilized, resuspended in water, and stored at −20° C.
d. APE-cleavage reaction: DNA substrates containing either regular AP-sites or chemicalmodified AP sites are incubated with APE (Trevigen, Gaithersburg, Md.) for 30 min and reactants are precipitated with 100% cold ethanol, washed with 70% ethanol and resuspended in TE buffer. The reactants are resolved by denaturing 20% polyacrylamide gel electrophoresis and visualized by silver staining (Silver Staining Kit, Pharmacia Biotech).

Regarding `NNC(=S)Nc1ccc(-c2c3ccc(=O)cc-3oc3cc(O)ccc23)c(C(=O)O)c1` [Compound A], the “binding to AP sites assayed with ARP” value in data set [1] is on record as “able to bind to AP sites”. Besides, the fluorescence signal result in data set [2] was “no visualized fluorescence signal”. The “cytotoxicity of A alone” value in data set [3] (1 mM) is recorded as “non-toxic”. For the same molecule, in data set [3] (A at 1 mM), the “sensitization to TMZ-cytotoxicity” value was 2-3 fold. The “cleavage of modified AP sites by APE” value in data set [4] is on record as “refractory to cleavage”.
